Measurements: patent US20240269139A1, “COMPOUNDS FOR TARGETED PROTEIN DEGRADATION OF KINASES” (DANA-FARBER CANCER INSTITUTE, INC., priority 2020, published 2024)
Where two headings read alike, the source gives them in different places.

Key:
[1] = biological target: T1, protein kinases (human kinome) (Homo sapiens, UniProt P21709); assay type: cell-based; conditions: for logFC of EPHA1 (P21709): Experiment wp114; for logFC EPHA1: protein EPHA1 (P21709), experiment wp114, direction of change down
T1 sequence (P21709 26-976): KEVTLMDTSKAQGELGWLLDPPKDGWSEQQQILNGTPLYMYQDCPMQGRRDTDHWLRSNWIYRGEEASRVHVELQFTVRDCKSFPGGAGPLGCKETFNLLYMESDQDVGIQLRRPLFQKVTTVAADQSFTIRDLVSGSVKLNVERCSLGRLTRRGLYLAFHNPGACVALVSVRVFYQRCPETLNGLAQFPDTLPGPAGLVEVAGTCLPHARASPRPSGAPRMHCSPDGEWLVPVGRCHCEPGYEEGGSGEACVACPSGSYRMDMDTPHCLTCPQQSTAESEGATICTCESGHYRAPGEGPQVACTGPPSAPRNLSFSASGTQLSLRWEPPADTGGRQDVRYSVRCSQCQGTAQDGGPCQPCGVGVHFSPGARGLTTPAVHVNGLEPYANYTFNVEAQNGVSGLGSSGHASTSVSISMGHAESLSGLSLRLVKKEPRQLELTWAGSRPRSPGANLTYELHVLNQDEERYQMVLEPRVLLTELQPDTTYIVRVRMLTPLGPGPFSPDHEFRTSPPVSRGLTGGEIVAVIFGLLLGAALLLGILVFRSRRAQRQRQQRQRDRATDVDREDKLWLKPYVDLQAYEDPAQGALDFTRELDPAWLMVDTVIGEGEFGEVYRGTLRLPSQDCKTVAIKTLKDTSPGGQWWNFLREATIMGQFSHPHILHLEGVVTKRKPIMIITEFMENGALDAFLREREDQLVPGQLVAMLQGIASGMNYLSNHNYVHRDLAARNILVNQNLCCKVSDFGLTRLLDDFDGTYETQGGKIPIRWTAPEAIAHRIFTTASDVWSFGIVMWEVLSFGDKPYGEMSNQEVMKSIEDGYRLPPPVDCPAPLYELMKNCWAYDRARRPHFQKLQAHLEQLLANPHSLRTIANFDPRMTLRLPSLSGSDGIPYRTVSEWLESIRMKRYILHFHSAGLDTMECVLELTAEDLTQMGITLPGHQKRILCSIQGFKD

[2] = biological target: T2, protein kinases (human kinome) (Homo sapiens, UniProt Q08881); assay type: cell-based
T2 sequence (Q08881 1-620): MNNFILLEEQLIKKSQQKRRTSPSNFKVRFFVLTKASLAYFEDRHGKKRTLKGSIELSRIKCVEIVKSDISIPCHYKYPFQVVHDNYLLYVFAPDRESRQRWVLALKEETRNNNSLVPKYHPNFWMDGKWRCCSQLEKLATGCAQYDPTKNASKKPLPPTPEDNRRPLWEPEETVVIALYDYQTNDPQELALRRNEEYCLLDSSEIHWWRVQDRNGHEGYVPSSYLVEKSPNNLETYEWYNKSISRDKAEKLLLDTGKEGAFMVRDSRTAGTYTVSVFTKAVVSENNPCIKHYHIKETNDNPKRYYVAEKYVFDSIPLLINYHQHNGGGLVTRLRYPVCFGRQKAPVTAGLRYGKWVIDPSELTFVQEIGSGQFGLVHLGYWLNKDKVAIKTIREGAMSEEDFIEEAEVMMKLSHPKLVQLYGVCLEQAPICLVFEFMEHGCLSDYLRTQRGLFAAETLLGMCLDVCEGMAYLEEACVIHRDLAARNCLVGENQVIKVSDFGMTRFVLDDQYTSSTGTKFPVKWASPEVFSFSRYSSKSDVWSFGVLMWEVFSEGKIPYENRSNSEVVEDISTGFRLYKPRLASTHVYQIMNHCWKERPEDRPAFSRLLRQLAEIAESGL

Row | SMILES | logFC of EPHA1 (P21709) [1] | logFC EPHA1 [1] | logFC ITK (Q08881) ([2]; Experiment wp108) | logFC ITK (Q08881) ([2]; experiment wp108, direction of change down) | logFC ITK (Q08881) ([2]; experiment wp131) | logFC ITK (Q08881) ([2]; experiment wp131, direction of change down)
1 | Cc1ncsc1-c1ccc([C@H](C)NC(=O)[C@@H]2C[C@@H](O)CN2C(=O)[C@@H](NC(=O)CCOCCOCCN2CCN(c3ccc(Nc4ncc(Cl)c(Nc5ccccc5S(=O)(=O)C(C)C)n4)cc3)CC2)C(C)(C)C)cc1 [FMF.06.098.1] | −0.422 | −0.422 | −0.3557 | −0.3557 | −0.3625 | −0.3625
2 | Cc1ccc(C(=O)Nc2ccc(CN3CCN(CCCOCCOCCOCCNC(=O)COc4cccc5c4C(=O)N(C4CCC(=O)NC4=O)C5=O)CC3)c(C(F)(F)F)c2)cc1C#Cc1cnc2cccnn12 (centres unmarked) [SB1.G.187] | −0.3552 | −0.3552 | – | – | – | –
